Measurements as given in patent US11591365B2, “BCL9 peptides and variants thereof” (WntRx Pharmaceuticals Inc., priority 2017, dated 2023).
*1 amine or outer side, *2 acyl side, *3 side chain or, on linkers, in order; H or OH if unused. Where a SMILES comes first, the peptide text is derived from it. Bridges are numbered along the chain shown (N, C = ends). [ ]: non-standard residue; d: D form. The star is where a group is joined. Azetidine3carboxylic = O=C(C1CN([*:1])C1)[*:2]; 2Nal = N[C@@H](Cc1ccc2ccccc2c1)C(=O)O; X1 = NC(=O)CCCCN(CC(=O)[*:2])[*:1]; NMeR = CN[C@@H](CCCNC(=N)N)C(=O)O; Palmitoyl = CCCCCCCCCCCCCCCC(=O)*; hArg = N=C(N)NCCCC[C@H](N)C(=O)O; NMeQ = CN[C@@H](CCC(N)=O)C(=O)O; NMeD = CN[C@@H](CC(=O)O)C(=O)O; Cba = N[C@@H](CC1CCC1)C(=O)O; PEG4 = NCCOCCOCCOCCOCCC(=O)O; S5 = C=CCCC[C@](C)(N)C(=O)O; Ac4c = NC1(C(=O)O)CCC1

test system: Colo320DM; experiment: Colo320DM cell viability; format: cell-based, human
Text: In some embodiments, a polypeptide described herein inhibits binding of BLC9 to β-catenin when assessed in a cell-viability assay. In some embodiments, the cell-viability assay is a CellTiterGlo luminescent assay, wherein the viability of cells is quantitatively measured. Various cell lines, transformed cell lines or primary cells derived from a healthy subject or subject suffering from a disease can be used in this assay.

Question: For `CC[C@H](C)[C@@H]1NC(=O)[C@@](C)(NC(=O)[C@H](CCCNC(=N)N)NC(=O)[C@H](CC(C)C)NC(=O)[C@@H](NC(=O)[C@H](CCC(N)=O)N(C)C(=O)[C@H](CC(C)C)NC(=O)[C@H](CO)NC(=O)[C@H](CCCNC(=N)N)NC(=O)[C@H](CCC(N)=O)N(C)C(=O)[C@H](CCCNC(=N)N)NC(=O)[C@H](Cc2c[nH]cn2)NC(C)=O)[C@@H](C)O)CCCC=CCCC[C@@](C)(C(=O)N[C@@H](CC2CCC2)C(=O)N[C@@H](Cc2ccc3ccccc3c2)C(N)=O)NC(=O)[C@H](CCCNC(=N)N)NC(=O)[C@H](CCC(N)=O)NC1=O` [SEQ ID NO: 155, HR(N-methylQ)RSL(N-methylQ)TLRXIQRX(CBA)(2-Nal)] (Ac-HR[NMeQ]RSL[NMeQ]TLR[S5]IQR[S5][Cba][2Nal]-NH2; staple 11-15), which IC50 is on record?
Answer: 2.15 µM

Question: With `CC[C@H](C)[C@@H]1NC(=O)[C@@](C)(NC(=O)[C@H](CCCNC(=N)N)NC(=O)[C@H](CC(C)C)NC(=O)[C@@H](NC(=O)[C@H](CCC(N)=O)NC(=O)[C@H](CC2CCC2)NC(=O)[C@H](CO)NC(=O)[C@H](CCCNC(=N)N)NC(=O)[C@H](CCC(N)=O)NC(=O)[C@H](CCCNC(=N)N)NC(=O)[C@H](Cc2c[nH]cn2)NC(C)=O)[C@@H](C)O)CCCC=CCCC[C@@](C)(C(=O)N[C@@H](CC2CCC2)C(=O)N[C@@H](Cc2ccc3ccccc3c2)C(N)=O)NC(=O)[C@H](CCCNC(=N)N)NC(=O)[C@H](CCC(N)=O)NC1=O` [SEQ ID NO: 156, HRQRS(CBA)QTLRXIQRX(CBA)(2-Nal)] (Ac-HRQRS[Cba]QTLR[S5]IQR[S5][Cba][2Nal]-NH2; staple 11-15) as the compound, how does the IC50 read?
Answer: 2.63 µM

Question: `CC[C@H](C)[C@@H]1NC(=O)[C@@](C)(NC(=O)[C@H](CCCNC(=N)N)NC(=O)[C@H](CC(C)C)NC(=O)[C@@H](NC(=O)[C@H](CCC(N)=O)NC(=O)[C@H](CC(C)C)NC(=O)[C@H](CO)NC(=O)[C@H](CCCNC(=N)N)NC(=O)[C@H](CC(=O)O)N(C)C(=O)[C@H](CCCNC(=N)N)NC(=O)[C@H](Cc2c[nH]cn2)NC(C)=O)[C@@H](C)O)CCCC=CCCC[C@@](C)(C(=O)N[C@@H](CC2CCC2)C(=O)N[C@@H](Cc2ccc3ccccc3c2)C(N)=O)NC(=O)[C@H](CCCNC(=N)N)NC(=O)[C@H](CCC(N)=O)NC1=O` [SEQ ID NO: 157, HR(N-methylD)RSLQTLRXIQRX(CBA)(2-Nal)] (Ac-HR[NMeD]RSLQTLR[S5]IQR[S5][Cba][2Nal]-NH2; staple 11-15) was tested. Which IC50 did it give?
Answer: 3.17 µM

Question: Which IC50 does the source give for `CC[C@H](C)[C@@H]1NC(=O)[C@@](C)(NC(=O)[C@H](CCCNC(=N)N)NC(=O)[C@H](CC(C)C)NC(=O)[C@@H](NC(=O)[C@H](CCC(N)=O)NC(=O)[C@H](CC(C)C)NC(=O)[C@@H](NC(=O)[C@H](CCCNC(=N)N)NC(=O)[C@H](CCC(N)=O)NC(=O)[C@H](CCCNC(=N)N)NC(=O)[C@H](Cc2c[nH]cn2)NC(C)=O)[C@@H](C)O)[C@@H](C)O)CCCC=CCCC[C@@](C)(C(=O)N[C@@H](CC2CCC2)C(=O)N[C@@H](Cc2ccc3ccccc3c2)C(N)=O)NC(=O)[C@H](CCCNC(=N)N)NC(=O)[C@H](CCC(N)=O)NC1=O` [SEQ ID NO: 159, HRQRTLQTLRXIQRX(CBA)(2-Nal)] (Ac-HRQRTLQTLR[S5]IQR[S5][Cba][2Nal]-NH2; staple 11-15) here?
Answer: 2.48 µM

Question: `CCCCCCCCCCCCCCCC(=O)NCCOCCOCCOCCOCCC(=O)N[C@@H](Cc1c[nH]cn1)C(=O)N[C@@H](CCCNC(=N)N)C(=O)N[C@@H](CCC(N)=O)C(=O)N[C@@H](CCCNC(=N)N)C(=O)N[C@@H](CO)C(=O)N[C@@H](CC(C)C)C(=O)N[C@@H](CCC(N)=O)C(=O)N[C@H](C(=O)N[C@@H](CC(C)C)C(=O)N[C@@H](CCCNC(=N)N)C(=O)N[C@@]1(C)CCCC=CCCC[C@@](C)(C(=O)N[C@@H](CC2CCC2)C(=O)N[C@@H](Cc2ccc3ccccc3c2)C(N)=O)NC(=O)[C@H](CCCNC(=N)N)NC(=O)[C@H](CCC(N)=O)NC(=O)[C@H]([C@@H](C)CC)NC1=O)[C@@H](C)O` [SEQ ID NO: 160, HRQRSLQTLRXIQRX(CBA)(2-Nal)] ({Palmitoyl-PEG4}-HRQRSLQTLR[S5]IQR[S5][Cba][2Nal]-NH2; staple 11-15) was tested. Which IC50 did it give?
Answer: 0.83 µM

Question: For `CCCCCCCCCCCCCCCC(=O)NCCOCCOCCOCCOCCC(=O)NCCCC[C@H](NC(=O)[C@H](Cc1ccc2ccccc2c1)NC(=O)[C@H](CC1CCC1)NC(=O)[C@]1(C)CCCC=CCCC[C@](C)(NC(=O)[C@H](CCCNC(=N)N)NC(=O)[C@H](CC(C)C)NC(=O)[C@@H](NC(=O)[C@H](CCC(N)=O)NC(=O)[C@H](CC(C)C)NC(=O)[C@H](CO)NC(=O)[C@H](CCCNC(=N)N)NC(=O)[C@H](CCC(N)=O)NC(=O)[C@H](CCCNC(=N)N)NC(=O)[C@H](Cc2c[nH]cn2)NC(C)=O)[C@@H](C)O)C(=O)N[C@@H]([C@@H](C)CC)C(=O)N[C@@H](CCC(N)=O)C(=O)N[C@@H](CCCNC(=N)N)C(=O)N1)C(N)=O` [SEQ ID NO: 161, HRQRSLQTLRXIQRX(CBA)(2-Nal)], which IC50 is on record?
Answer: 3.35 µM

Question: Which IC50 does the source give for `CC[C@H](C)[C@@H]1NC(=O)[C@@](C)(NC(=O)[C@H](CCCNC(=N)N)NC(=O)[C@H](CC(C)C)NC(=O)[C@@H](NC(=O)[C@H](CCC(N)=O)NC(=O)[C@H](CC(C)C)NC(=O)[C@H](CO)NC(=O)[C@H](CCCCNC(=N)N)NC(=O)[C@H](CCC(N)=O)NC(=O)[C@H](CCCNC(=N)N)NC(=O)[C@H](Cc2c[nH]cn2)NC(C)=O)[C@@H](C)O)CCCC=CCCC[C@@](C)(C(=O)N[C@@H](CC2CCC2)C(=O)N[C@@H](Cc2ccc3ccccc3c2)C(N)=O)NC(=O)[C@H](CCCNC(=N)N)NC(=O)[C@H](CCC(N)=O)NC1=O` [SEQ ID NO: 167, HRQ(homoR)SLQTLRXIQRX(CBA)(2-Nal)] (Ac-HRQ[hArg]SLQTLR[S5]IQR[S5][Cba][2Nal]-NH2; staple 11-15) here?
Answer: 4.76 µM

Question: How did the IC50 turn out when `CC[C@H](C)[C@@H]1NC(=O)[C@@](C)(NC(=O)[C@H](CCCNC(=N)N)NC(=O)[C@H](CC(C)C)NC(=O)[C@@H](NC(=O)[C@H](CCC(N)=O)NC(=O)[C@H](CC(C)C)NC(=O)[C@H](CO)NC(=O)[C@H](CCCNC(=N)N)N(C)C(=O)[C@H](CCC(N)=O)NC(=O)[C@H](CCCNC(=N)N)NC(=O)[C@H](Cc2c[nH]cn2)NC(C)=O)[C@@H](C)O)CCCC=CCCC[C@@](C)(C(=O)N[C@@H](CC2CCC2)C(=O)N[C@@H](Cc2ccc3ccccc3c2)C(N)=O)NC(=O)[C@H](CCCNC(=N)N)NC(=O)[C@H](CCC(N)=O)NC1=O` [SEQ ID NO: 168, HRQ(N-methylR)SLQTLRXIQRX(CBA)(2-Nal)] (Ac-HRQ[NMeR]SLQTLR[S5]IQR[S5][Cba][2Nal]-NH2; staple 11-15; N-terminus and C-terminus assumed) was run?
Answer: 4.14 µM

Question: `CC[C@H](C)[C@@H]1NC(=O)[C@@](C)(NC(=O)[C@H](CCCNC(=N)N)NC(=O)[C@H](CC(C)C)NC(=O)[C@@H](NC(=O)CN(CCCCC(N)=O)C(=O)[C@H](CC(C)C)NC(=O)[C@H](CO)NC(=O)[C@H](CCCNC(=N)N)NC(=O)[C@H](CCC(N)=O)NC(=O)[C@H](CCCNC(=N)N)NC(=O)[C@H](Cc2c[nH]cn2)NC(C)=O)[C@@H](C)O)CCCC=CCCC[C@@](C)(C(=O)N[C@@H](CC2CCC2)C(=O)N[C@@H](Cc2ccc3ccccc3c2)C(N)=O)NC(=O)[C@H](CCCNC(=N)N)NC(=O)[C@H](CCC(N)=O)NC1=O` [SEQ ID NO: 169, HRQRSL(peptoid-Q)TLRXIQRX(CBA)(2-Nal)] (Ac-HRQRSL[X1]TLR[S5]IQR[S5][Cba][2Nal]-NH2; staple 11-15) was tested. Which IC50 did it give?
Answer: 4.98 µM

Question: `CC[C@H](C)[C@@H]1NC(=O)[C@@](C)(NC(=O)[C@H](CCCCNC(=N)N)NC(=O)[C@H](CC(C)C)NC(=O)[C@@H](NC(=O)[C@H](CCC(N)=O)NC(=O)[C@H](CC(C)C)NC(=O)[C@H](CO)NC(=O)[C@H](CCCNC(=N)N)NC(=O)[C@H](CCC(N)=O)NC(=O)[C@H](CCCNC(=N)N)NC(=O)[C@H](Cc2c[nH]cn2)NC(C)=O)[C@@H](C)O)CCCC=CCCC[C@@](C)(C(=O)N[C@@H](CC2CCC2)C(=O)N[C@@H](Cc2ccc3ccccc3c2)C(N)=O)NC(=O)[C@H](CCCNC(=N)N)NC(=O)[C@H](CCC(N)=O)NC1=O` [SEQ ID NO: 170, HRQRSLQTL(homoR)XIQRX(CBA)(2-Nal)] (Ac-HRQRSLQTL[hArg][S5]IQR[S5][Cba][2Nal]-NH2; staple 11-15) was tested. Which IC50 did it give?
Answer: 5.17 µM

Question: `CC[C@H](C)[C@@H]1NC(=O)[C@@](C)(NC(=O)[C@H](CCCNC(=N)N)NC(=O)[C@H](CC(C)C)NC(=O)[C@@H](NC(=O)[C@H](CCC(N)=O)NC(=O)[C@H](CC(C)C)NC(=O)[C@H](CO)NC(=O)[C@H](CCCNC(=N)N)NC(=O)[C@H](CCC(N)=O)NC(=O)[C@H](CCCNC(=N)N)NC(=O)[C@H](Cc2c[nH]cn2)NC(C)=O)[C@@H](C)O)CCCC=CCCC[C@@](C)(C(=O)N[C@@H](CC2CCC2)C(=O)N[C@@H](Cc2ccc3ccccc3c2)C(N)=O)NC(=O)[C@H](CCCCNC(=N)N)NC(=O)[C@H](CCC(N)=O)NC1=O` [SEQ ID NO: 171, HRQRSLQTLRXIQ(homoR)X(CBA)(2-Nal)] (Ac-HRQRSLQTLR[S5]IQ[hArg][S5][Cba][2Nal]-NH2; staple 11-15) was tested. Which IC50 did it give?
Answer: 4.76 µM

Question: Which IC50 does the source give for `CC[C@H](C)[C@@H]1NC(=O)[C@@](C)(NC(=O)[C@H](CCCNC(=N)N)NC(=O)[C@H](CC(C)C)NC(=O)[C@@H](NC(=O)[C@H](CCC(N)=O)NC(=O)[C@H](CC(C)C)NC(=O)[C@H](CO)NC(=O)[C@H](CCCNC(=N)N)NC(=O)[C@H](CCC(N)=O)NC(=O)[C@H](CCCNC(=N)N)NC(=O)[C@H](Cc2c[nH]cn2)NC(C)=O)[C@@H](C)O)CCCC=CCCC[C@@](C)(C(=O)NC2(C(=O)N[C@@H](Cc3ccc4ccccc4c3)C(N)=O)CCC2)NC(=O)[C@H](CCCNC(=N)N)NC(=O)[C@H](CCC(N)=O)NC1=O` [SEQ ID NO: 176, HRQRSLQTLRXIQRX(AC4C)(2-Nal)] (Ac-HRQRSLQTLR[S5]IQR[S5][Ac4c][2Nal]-NH2; staple 11-15) here?
Answer: > 5 µM

Question: How did the IC50 turn out when `CC[C@H](C)[C@@H]1NC(=O)[C@@](C)(NC(=O)[C@H](CCCNC(=N)N)NC(=O)[C@H](CC(C)C)NC(=O)[C@@H](NC(=O)[C@H](CCC(N)=O)NC(=O)[C@H](CC(C)C)NC(=O)[C@H](CO)NC(=O)[C@H](CCCNC(=N)N)NC(=O)[C@H](CCC(N)=O)NC(=O)[C@H](CCCNC(=N)N)NC(=O)[C@H](Cc2c[nH]cn2)NC(C)=O)[C@@H](C)O)CCCC=CCCC[C@@](C)(C(=O)N2CC(C(=O)N[C@@H](Cc3ccc4ccccc4c3)C(N)=O)C2)NC(=O)[C@H](CCCNC(=N)N)NC(=O)[C@H](CCC(N)=O)NC1=O` [SEQ ID NO: 178, HRQRSLQTLRXIQRX(Aze)(2-Nal)] (Ac-HRQRSLQTLR[S5]IQR[S5][Azetidine3carboxylic][2Nal]-NH2; staple 11-15) was run?
Answer: > 5 µM
